Reference: patent publication US20260256772A1, “BENZOTHIAZOLE COMPOUND AND USE THEREOF” (NANJING REJU THERAPEUTICS, INC., priority 2022, published 2026)

What was measured:
[1] = system: hepatic fibrosis; assay: Hepatic fibrosis mouse model (CCl4); type: in vivo, C57BL/6N mice; details: FIG. 9; for serum alanine aminotransferase (ALT) levels / serum aspartate aminotransferase (AST) levels: intraperitoneal (IP) injection twice a week from third week of modelling; for pathology scores: intraperitoneal (IP) injection, liver Masson staining
Protocol: In this test example, the efficacy of the compounds of the present disclosure was tested on hepatic fibrosis in an animal model of hepatic fibrosis. Briefly, C57BL/6N mice, male, 7 to 8 weeks old, 24 to 28 g of body weight, were used. The mouse model of hepatic fibrosis was induced by intraperitoneal injection of CCl4 solution at a dosage of 1 mL/kg, with a dosing frequency of 2 times/week, and a modelling cycle of 6 weeks. Dosing via intraperitoneal injection was started starting from the third week of modelling twice a week. At the end of the test, serum was collected, and liver tissue was taken for Masson staining index assay.

[2] = system: senescent cells; assay: Senescent cell killing, CellTiter-Glo cell viability; type: cell-based, human, mouse; details: activity of killing senescent cells; cell type not specified
Text: In this test example, human non-small cell lung cancer cell line (A549 cells), human embryonic lung fibroblast cell line (IMR90 cells), human retinal pigment epithelial cells (RPE cells), mouse chondrocytes, and mouse skin fibroblasts were selected. The above cells were induced by etoposide ([…]) to obtain their senescent cells. The effect of the target compounds on the viability of normal and senescent cells above was examined, thus assessing the specific killing effect of the compounds on senescent cells above.
Briefly, senescent and normal cells above were selected and plated separately (96-well plates). […] 2A to 2E.

[3] = system: diabetic retinopathy; assay: Mouse model of diabetic retinopathy (STZ), retinal Evans blue penetration assay; type: in vivo; details: intravitreal (IVT), 1 μL of 200 μM at 8 and 9 weeks after STZ, FIG. 4
Protocol: The efficacy of the compounds of the present disclosure was studied in a mouse model of diabetic retinopathy by multiple administrations of streptozotocin (STZ). C57BL/6J mice at 6 to 7 weeks were weighed and their baseline blood glucose was measured (Sino). STZ (Sigma-Alderich) was injected intraperitoneally into the mice at 55 mg/Kg for five consecutive days. Age-matched controls were injected with buffer only. Blood glucose was measured again one week after the last STZ injection. 1 μL of the test compound (200 μM, a suspension formulated in 0.015% polysorbate 80, 0.2% sodium phosphate, 0.75% sodium chloride, pH 7.2) was injected intravitreally into the STZ-treated diabetic C57BL/6J mice at 8 and 9 weeks after STZ administration. 10 weeks after STZ treatment, the retinal Evans blue penetration assay was performed.

[4] = system: Alzheimer's disease; assay: Alzheimer's disease APP×PS1 transgenic mouse model; type: in vivo; details: intraperitoneal injection, 11 consecutive weeks, twice a week, FIG. 8
Protocol: In this test example, the efficacy of the compounds of the present disclosure was tested on Alzheimer's disease in an animal model of Alzheimer's disease. Briefly, a transgenic mouse model of APP×PS1 (purchased from Cyagen Biosciences) was selected, and the compound of the present disclosure was administered by intraperitoneal injection for 11 consecutive weeks, twice a week. Alterations in amyloid in the cerebral cortex of the mice were observed.

[5] = system: wet-age-related macular degeneration; assay: CNV animal model of wet-age-related macular degeneration; type: in vivo, mice; details: intravitreal (IVT), FIG. 5
Protocol: In this test example, the efficacy of the compounds of the present disclosure was tested on wet-age-related macular degeneration in a CNV animal model.
Male mice were administered 0.5% probacaine hydrochloride (Alcon) for local anesthesia, and 1% tropicamide to dilate the pupils of the mice. Laser cauterization was performed using a laser photocoagulator (Novus Varia, LUMENIS) with a slit lamp delivery system. And artificially torn adherent glass coverslips were used as contact lenses. Bleeding spots caused by lasers were not included in the statistics. In each experimental group, six mice were analyzed with four impacts per eye to overcome inherent variability.

[6] = system: aging skin; assay: Aging skin, naturally aging mouse model; type: in vivo, C57bl/6J mice; details: skin application twice a week for 6 consecutive weeks, FIG. 10
Protocol: In this test example, aged female C57bl/6J mice (22 months old) were used. The drug was administered by skin application twice a week for 6 consecutive weeks.

[7] = system: renal fibrosis; assay: Renal fibrosis animal model (ureter ligation); type: in vivo, C57BL/6J mice; details: FIG. 11; for serum creatinine (Cr) levels / urea nitrogen (BUN) levels: intraperitoneal (IP) injection from 2nd week of modelling; for pathology: intraperitoneal (IP) injection, kidney Masson staining
Protocol: In this test example, the efficacy of the compound of the present disclosure was tested on renal fibrosis in an animal model of renal fibrosis. Briefly, C57BL/6J mice, male, 7 to 8 weeks old, were used. The mice were anaesthetized, made to lie supine on a foam board, and disinfected with iodophor, and a longitudinal incision was made in the skin in the middle of the lower abdomen to locate the white line of the abdominal muscle, where the abdominal muscle, fascia and peritoneal layer were dissected. After exposing the surgical field, the kidneys were exposed by pushing the stomach and mesentery of the mice to the right side with a gauze soaked with saline. The model of renal fibrosis was constructed by locating the transparent ureter from the renal pelvis along the renal artery, separating the left ureter, ligating the upper ⅓ of the left ureter, suturing the incision layer by layer, and finally disinfecting with iodophor. Dosing via intraperitoneal injection started from the 2nd week of modelling. At the end of the experiment, the mouse serum was collected, and kidney tissues were taken for Masson staining index assay.

[8] = system: osteoarthritis; assay: Osteoarthritis animal model; type: in vivo, mice; details: intra-articular injection, FIG. 7
Protocol: In this test example, the efficacy of the compounds of the present disclosure was tested on osteoarthritis in an osteoarthritis animal model.
The osteoarthritis animal model was constructed by the following steps. The mice were anesthetized with isoflurane, and fixed. The hair on the right hind limb of the mice was shaved and the skin was disinfected with alcohol, and the skin of the joints was cut. Under an optical microscope, the inside of the right knee joint was incised longitudinally with a blade, without cutting the patellar ligament. The patellar ligament was pulled to one side with constant hemostasis by compression with sterile cotton swabs such that the joint cavity was fully exposed. Saline was added dropwise in time to avoid the drying up of the joint cavity. The excess muscle tissue was gently separated with a blunt forceps to expose the meniscus ligament. The anterior cruciate ligament was found in the depth of the joint cavity and cut with a micro scissor. Then the wound was disinfected with penicillin solution, the muscle was sutured with sterile needle and thread, and the skin tissue was finally sutured. The efficacy of the drug was determined by intra-articular injection administration. At the endpoint of the test, continued pain threshold of the plantar was detected, and the bone joints were stained with safranin fast green.

Compound	serum alanine aminotransferase (ALT) levels [1]	serum aspartate aminotransferase (AST) levels [1]	pathology scores [1]	IC50 [2]	vascular permeability, choroidal vascular leakage [3]	vascular permeability, retinal vascular leakage [3]	Aβ42 pathogenic protein indicators [4]	fluorescence intensity indicators [5]	epidermal thickness scores of the skins [6]	serum creatinine (Cr) levels [7]	urea nitrogen (BUN) levels [7]	pathology [7]	pathology scores of safranin fast green staining [8]	plantar mechanical pain threshold [8]
CCN1CCN(C(=O)c2nc(N3CCc4cccc(C(=O)Nc5nc6ccccc6s5)c4C3)ccc2-c2cnn(CC34CC5CC(CC(C5)C3)C4)c2C)CC1 [RX001]	statistically significant improvements	statistically significant improvements	statistically significant improvements	0.2 to 1 µM	improved	improved	statistically significant improvements	statistically significant improvements	statistically significant improvements	statistically significant improvements	statistically significant improvements	statistically significant improvements	statistically significant improvements	statistically significant improvements
Cc1c(-c2ccc(N3CCc4cccc(C(=O)Nc5nc6ccccc6s5)c4C3)nc2C(=O)N2CCC(CCOP(=O)(O)O)CC2)cnn1CC12CC3CC(CC(C3)C1)C2 [RX301]	statistically significant improvements	statistically significant improvements	statistically significant improvements	< 0.2 µM	improved	improved	statistically significant improvements	statistically significant improvements	statistically significant improvements	statistically significant improvements	statistically significant improvements	statistically significant improvements	statistically significant improvements	statistically significant improvements
